The results in this text go back to the SangsterLogP compilation.

The series is described as follows: method code SF-AS, from DOI: 10.1016/0223-5234(92)90053-4.
Take `CC(O)CNCCCC(=O)Cc1ccccc1` (configuration not stated): the log partition coefficient (logP) (in general, the decadic logarithm of the partition coefficient of the neutral form, usually between octanol and water) was found to be 2.53.
Next, `CN(CCO)CCCC(=O)c1ccccc1`: 2.4.
With `O=C(CCCNCCO)c1ccccc1` the figure was 2.41; with `Cc1cc(C)c(C(=O)CCCNCCO)c(C)c1`, 3.16; with `O=C(CCCNCCO)C1CCCCC1`, 3.96.
With `NCCNCCCC(=O)c1cccs1` the figure was 2.58.
`NCCNCCCC(=O)c1ccccc1` gave a logP of 2.74.
Next, `CC(O)CNCCCC(=O)c1cccs1` (configuration not stated): 2.73; `O=C(CCCNCCO)c1cccs1`: 2.89; `CN(CCO)CCCC(=O)Cc1ccccc1`: 3.07.
With `CCN(CC)CCCC(=O)c1ccccc1` the figure was 3.79; with `Cc1ccccc1C(=O)CCCNCCO`, 3.61; with `Cc1ccsc1C(=O)CCCNCCO`, 3.
The molecule `O=C(CCCNCCO)Cc1ccccc1` returned a lipophilicity (logP) of 3.03. This logP and that of the molecule before are within 0.2 log units of each other.
The molecule `CC(O)CNCCCC(=O)c1ccccc1` (configuration not stated) returned a log partition coefficient (logP) of 3.28.
With `CN(CCO)CCCC(=O)c1cccs1` the figure was 3.29; with `CCc1ccccc1C(=O)CCCNCCO`, 3.85.
